{
  "source": "patent US20250326708A1",
  "about": "“LONG-ACTING SPLEEN-TARGETING CATIONIC LIPID COMPOUND COMPRISING BENZENE RING STRUCTURE, COMPOSITION COMPRISING SAME, AND USE THEREOF” (Beijing Youcarekechuang Pharmaceutical Technology Co., Ltd., priority 2024, published 2025)",
  "key": {"[1]": {"system": "293T cells", "assay": "Fluorescence detection of Fluc-mRNA (transfection efficiency) of LNP preparations", "type": "cell-based", "settings": "Fluc-mRNA LNP", "summary_of_the_method": "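293T cells seeded at 10,000 per well in 96-well plates overnight, then dosed with LNPs (cationic lipid:DSPC:cholesterol:DMG-PEG2000 49:10:39.5:1.5 molar; total lipid:mRNA 15:1 w/w) carrying 0.3 μg Fluc-mRNA. After 24 h, luciferase kit reagents added and fluorescence intensity per well read by IVIS imaging.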"}, "[2]": {"system": "293T cells", "assay": "Cell viability assay (CCK-8) with LNP preparations of Fluc-mRNA", "type": "cell-based", "summary_of_the_method": "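293T cells seeded at 10,000/well and cultured overnight, then given LNPs (cationic lipid:DSPC:cholesterol:DMG-PEG2000 49:10:39.5:1.5) carrying 1.5 μg Fluc-mRNA. After 24 h, viability measured by CCK-8 with 1 h incubation.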"}, "[3]": {"system": "female BALB/C mice", "assay": "Expression of delivered mRNA in mice in vivo (IVIS in vivo imaging)", "settings": "for Expression level of mRNA in vivo, times that of YK-904: vs YK-904; for Average radiation intensity, in vivo imaging: 10 μg Fluc-mRNA via tail vein; for Expression level of mRNA in vivo, times that of SM-102: vs SM-102; for Expression level of mRNA in vivo, times that of YK-501: vs YK-501; for Expression level of mRNA in vivo, times that of YK-506: vs YK-506; for Expression level of mRNA in vivo, times that of compound 7: vs compound 7", "summary_of_the_method": "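Female BALB/c mice (4–6 weeks, 17–19 g) received LNPs carrying 10 μg Fluc-mRNA via tail vein. At 6 h, 24 h, 48 h and 7 d, imaging substrate was given i.p. and, after 5 min, average radiance was measured by IVIS Spectrum imaging.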"}, "[4]": {"system": "female BALB/C mice", "assay": "Expression of delivered mRNA in different organs of mice (organ imaging)", "type": "in vivo", "summary_of_the_method": "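Female BALB/C mice (4–6 weeks, 17–19 g) received LNPs carrying 5 μg Fluc-mRNA subcutaneously. At 6 h, imaging substrate was given i.p.; after 5 min, whole-body and then excised-organ (heart, liver, spleen, lung, kidney, lymph) average radiance was measured by IVIS Spectrum imaging.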"}, "[5]": {"settings": "6 hours after 5 μg Fluc-mRNA subcutaneously"}},
  "note": "Values joined by “and” are separate entries in the source; they are usually repeats but may differ in a detail not shown here. Equal values may be shown once.",
  "data": [
    {"smiles": "CCCCCCCCCCCOC(=O)CCCN(CCCCCCC(=O)OCCC(CCCCCC)CCCCCC)CCNC(CO)(CO)CCc1ccc(CCCCCCCC)cc1", "note": "[YK-910, 3-hexylnonyl 7-((2-((1-hydroxy-2-(hydroxymethyl)-4-(4-octylphenyl)butan-2-yl)amino)ethyl) (4-oxo-4-(undecyloxy)butyl)amino) heptanoate]", "values": [
      {"measurement": "Cellular transfection efficiency, times that of HHMA", "setting": "[1]; vs HHMA", "value": 8.53, "unit": "times"},
      {"measurement": "Cellular transfection efficiency, times that of I-1", "setting": "[1]; vs I-1", "value": 42.56, "unit": "times"},
      {"measurement": "Cellular transfection efficiency, times that of Lipofectamine 3000", "setting": "[1]; vs Lipofectamine 3000", "value": 10.24, "unit": "times"},
      {"measurement": "Cellular transfection efficiency, times that of MC3", "setting": "[1]; vs MC3", "value": 90.92, "unit": "times"},
      {"measurement": "Cellular transfection efficiency, times that of SM-102", "setting": "[1]; vs SM-102", "value": 6.04, "unit": "times"},
      {"measurement": "Cellular transfection efficiency, times that of YK-501", "setting": "[1]; vs YK-501", "value": 186.59, "unit": "times"},
      {"measurement": "Cellular transfection efficiency, times that of YK-506", "setting": "[1]; vs YK-506", "value": 13.19, "unit": "times"},
      {"measurement": "Cellular transfection efficiency, times that of YK-903", "setting": "[1]; vs YK-903", "value": 345.06, "unit": "times"},
      {"measurement": "Cellular transfection efficiency, times that of YK-906", "setting": "[1]; vs YK-906", "value": "313 times and 313.25 times"},
      {"measurement": "Cellular transfection efficiency, times that of compound 7", "setting": "[1]; vs compound 7", "value": 33.51, "unit": "times"},
      {"measurement": "Cell viability", "setting": "[2]; LNP with 1.5 μg Fluc-mRNA, 24 hours, CCK-8", "value": 94, "unit": "%"},
      {"measurement": "Cell viability higher than that of HHMA", "setting": "[2]; difference vs HHMA", "value": 17, "unit": "%"},
      {"measurement": "Cell viability higher than that of I-1", "setting": "[2]; difference vs I-1", "value": 26, "unit": "%"},
      {"measurement": "Cell viability higher than that of Lipofectamine 3000", "setting": "[2]; difference vs Lipofectamine 3000", "value": 63, "unit": "%"},
      {"measurement": "Cell viability higher than that of MC3", "setting": "[2]; difference vs MC3", "value": 20, "unit": "%"},
      {"measurement": "Cell viability higher than that of SM-102", "setting": "[2]; difference vs SM-102", "value": 12, "unit": "%"},
      {"measurement": "Cell viability higher than that of YK-501", "setting": "[2]; difference vs YK-501", "value": 31, "unit": "%"},
      {"measurement": "Cytotoxicity lower than that of YK-902", "setting": "[2]; difference vs YK-902", "value": 58, "unit": "%"},
      {"measurement": "Cell viability higher than that of YK-906", "setting": "[2]; difference vs YK-906", "value": 31, "unit": "%"},
      {"measurement": "Cell viability higher than that of compound 7", "setting": "[2]; difference vs compound 7", "value": 21, "unit": "%"},
      {"measurement": "Expression level of mRNA in vivo, times that of YK-904", "setting": "[3]; 6 h", "value": 12.03, "unit": "times"},
      {"measurement": "Average radiation intensity, in vivo imaging", "setting": "[3]; 6 h", "value": 13425454},
      {"measurement": "Expression level of mRNA in vivo, times that of SM-102", "setting": "[3]; 24 h", "value": 6.78, "unit": "times"},
      {"measurement": "Expression level of mRNA in vivo, times that of YK-501", "setting": "[3]; 24 h", "value": 12.21, "unit": "times"},
      {"measurement": "Expression level of mRNA in vivo, times that of YK-506", "setting": "[3]; 24 h", "value": 8.28, "unit": "times"},
      {"measurement": "Expression level of mRNA in vivo, times that of YK-904", "setting": "[3]; 24 h", "value": 18.49, "unit": "times"},
      {"measurement": "Expression level of mRNA in vivo, times that of compound 7", "setting": "[3]; 24 h", "value": 11.50, "unit": "times"},
      {"measurement": "Average radiation intensity, in vivo imaging", "setting": "[3]; 24 h", "value": 2133322},
      {"measurement": "Expression level of mRNA in vivo, times that of YK-904", "setting": "[3]; 48 h", "value": 23.07, "unit": "times"},
      {"measurement": "Average radiation intensity, in vivo imaging", "setting": "[3]; 48 h", "value": 658643},
      {"measurement": "Expression level of mRNA in vivo, times that of SM-102", "setting": "[3]; 7 d", "value": 9.24, "unit": "times"},
      {"measurement": "Expression level of mRNA in vivo, times that of YK-501", "setting": "[3]; 7 d", "value": 15.15, "unit": "times"},
      {"measurement": "Expression level of mRNA in vivo, times that of YK-506", "setting": "[3]; 7 d", "value": 2.49, "unit": "times"},
      {"measurement": "Expression level of mRNA in vivo, times that of YK-904", "setting": "[3]; 7 d", "value": 26.32, "unit": "times"},
      {"measurement": "Expression level of mRNA in vivo, times that of compound 7", "setting": "[3]; 7 d", "value": 10.03, "unit": "times"},
      {"measurement": "Average radiation intensity, in vivo imaging", "setting": "[3]; 7 d", "value": 85363},
      {"measurement": "Average radiation intensity of mouse organs: Heart", "setting": "[4]; [5]", "value": 0},
      {"measurement": "Average radiation intensity of mouse organs: Kidney", "setting": "[4]; [5]", "value": 0},
      {"measurement": "Average radiation intensity of mouse organs: Liver", "setting": "[4]; [5]", "value": 11424},
      {"measurement": "Average radiation intensity of mouse organs: Lung", "setting": "[4]; [5]", "value": 0},
      {"measurement": "Average radiation intensity of mouse organs: Lymph", "setting": "[4]; [5]", "value": 0},
      {"measurement": "Average radiation intensity of mouse organs: Spleen", "setting": "[4]; [5]", "value": 242444},
      {"measurement": "Expression level of mRNA in the spleen, times that of SM-102", "setting": "[4]; spleen, 6 h, vs SM-102", "value": 9.49, "unit": "times"},
      {"measurement": "Expression level of mRNA in the spleen, times that of YK-501", "setting": "[4]; spleen, 6 h, vs YK-501", "value": 17.04, "unit": "times"},
      {"measurement": "Expression level of mRNA in the spleen, times that of YK-506", "setting": "[4]; spleen, 6 h, vs YK-506", "value": 3.40, "unit": "times"}
    ]}
  ]
}
